Assay results published in ChEMBL document CHEMBL1151254, “A new anti-HIV alkaloid, drymaritin, and a new C-glycoside flavonoid, diandraflavone, from Drymaria diandra” (J Nat Prod, 2004).
In brackets after ≈: the same amount, converted by molar mass.

Assays:
[1] = test system: Human immunodeficiency virus; experiment: Antiviral activity against HIV in human H9 cells; type: functional, organism-based; settings: Human immunodeficiency virus 1, H9
Neutrophil = experiment: Inhibition of fMLP/CB-stimulated superoxide anion generation in human neutrophils; type: functional, cell-based

EC50 [1] [µg/mL]	IC50 (Neutrophil) [µg/mL]	SMILES
20.6 (≈ 82.3 µM)	–	COc1cnc2ccc(=O)n3c4ccccc4c1c23
–	10 (≈ 17.8 µM)	COc1cc2oc(-c3ccc([C@@H]4O[C@H](CO)[C@@H](O)[C@H](O)[C@H]4O)cc3)cc(=O)c2c(O)c1[C@H]1C[C@@H](O)[C@@H](O)[C@@H](C)O1 [DIANDRAFLAVONE A]
0.699 (≈ 2.79 µM)	–	COc1cn2c3ccccc3c3ccnc(c1=O)c32 [DRYMARITIN]
